# From patent US20100190824A1, “Novel Substituted Piperidones as HSP Inducers” (priority 2007, published 2010)
# Columns and labels:
# HSP70b mRNA [1] = test: Cellular expression of HSP-70 mRNA in Hela cells (real-time PCR); type: cell-based; details: fold induction of HSP-70b mRNA relative to the vehicle treated control; 4 hours; normalized to 18S rRNA
# Experimental: (§1) Experiments set forth in this section were conducted to determine whether the compounds of the present invention are able to elevate the expression of HSP-70 gene in cells.
# (§2) Hela cell-line or primary mixed neurons derived from neonatal rat cerebellum were employed. Induction was carried out for the indicated dose(s) for 4 hours duration and total RNA was isolated. Expression of HSP70b mRNA along-with expression of 18S rRNA was monitored by real-time PCR. HSP70b mRNA expression was normalized relative to the expression of 18S rRNA.
# (§3) The results for test compounds were expressed as fold induction of HSP-70 mRNA relative to vehicle treated control and are as shown in Table 2 & 3.
# HSP70b mRNA [2] = test: Cellular expression of HSP-70 mRNA in primary mixed neurons (real-time PCR); type: cell-based; details: fold induction of HSP70b mRNA relative to vehicle treated control; primary mixed neurons from neonatal rat cerebellum; 4 hours; normalized to 18S rRNA
# Experimental: as §1, §2, §3
# TNF-α mRNA = test: Inhibition of LPS-induced TNF-α expression in PMA differentiated THP-1 cells; type: cell-based, Human; details: LPS (1 ug/ml) and compound for 4 hours, LPS alone as 100%
# Experimental: The purpose of the present study was to determine the inhibition of lipopolysaccharide(LPS)-induced TNF-α expression in phorbol merstyl ester (PMA) differentiated THP-1 cells.
# Human monocytic leukaemia cell line (THP-1), differentiated into macrophage-like cells by PMA treatment was employed. Differentiated cells were treated with either LPS (1 ug/ml) alone or with LPS (1 ug/ml) and compound for 4 hours. Total RNA was isolated and expression of TNF-αmRNA along-with expression of 18S rRNA was monitored by real-time PCR. TNF-α mRNA expression was normalized relative to the expression of 18S rRNA Considering TNF-α expression for cells treated with LPS alone as 100%; the results for test compounds were expressed as % inhibition of TNF-α expression and are as shown in Table 4
Compound,HSP Induction in Hela cells (HSP70b mRNA [1]),HSP Induction in mixed neuron (HSP70b mRNA [2]),TNF-alpha Inhibition (TNF-α mRNA)
"CCOC(=O)N1CC(=Cc2ccccn2)C(=O)C(C)(C)C1Cc1ccc(OC)cc1 (stereo not drawn) [Compound 13, 2-(4-Methoxy-benzyl)-3,3-dimethyl-4-oxo-5-[1-pyridin-2-yl-methylidene]-piperidine-1-carboxylic acid ethyl ester]",(+++) (193-1536 fold),,
"COc1ccc(CC2N(C(=O)Oc3ccccc3)CC(=Cc3ccccn3)C(=O)C2(C)C)cc1 (stereo not drawn) [Compound 14, 2-(4-Methoxy-benzyl)-3,3-dimethyl-4-oxo-5-[1-pyridin-2-yl-methylidene]-piperidine-1-carboxylic acid phenyl ester]",(+++) (193-1536 fold),,
"COc1ccc(CC2N(C(=O)OCC(C)C)CC(=Cc3ccccn3)C(=O)C2(C)C)cc1 (stereo not drawn) [Compound 15, 2-(4-Methoxy-benzyl)-3,3-dimethyl-4-oxo-5-[1-pyridin-2-yl-methylidene]-piperidine-1-carboxylic acid isobutyl ester]",(++++) (>1536 fold),,
"CC1(C)CN(CCc2cccs2)CC(=Cc2ccccn2)C1=O [Compound 79, 3,3-Dimethyl-5-[1-pyridin-2-yl-methylidene]-1-(2-thiophen-2-yl-ethyl)-piperidin-4-one]",,(+++) (9-16 fold),(++++) (>80%)
"CC1(C)CN(Cc2ccco2)C(c2ccccc2)C(=Cc2ccccn2)C1=O (stereo not drawn) [Compound 82, 1-Furan-2-ylmethyl-5,5-dimethyl-2-phenyl-3-[1-pyridin-2-yl-methylidene]-piperidin-4-one]",,(+++) (9-16 fold),(++++) (>80%)
"CN1CC(C)(C)C(=O)C(=Cc2ccccn2)C1c1ccccc1 (stereo not drawn) [Compound 85, 1,5,5-Trimethyl-2-phenyl-3-[1-pyridin-2-yl-methylidene]-piperidin-4-one]",,(++) (5-8 fold),(+) (21-40%)
"COc1cc(C2C(=Cc3ccccn3)C(=O)C(C)(C)CN2Cc2ccco2)cc(OC)c1OC (stereo not drawn) [Compound 90, 1-Furan-2-ylmethyl-5,5-dimethyl-3-[1-pyridin-2-yl-methylidene]-2-(3,4,5-trimethoxy-phenyl)-piperidin-4-one]",,(+) (2-4 fold),(++) (41-60%)
"O=C1C(=Cc2cccc(N3CCOCC3)n2)C(=O)N(Cc2ccccc2)CC1c1ccccc1 (stereo not drawn) [Compound 103, 1-Benzyl-3-[1-(6-morpholin-4-yl-pyridin-2-yl)-methylidene]-5-phenyl-piperidine-2,4-dione]",,(+) (2-4 fold),(+) (21-40%)
"CC1(C)C(=O)C(=Cc2ccccn2)CN(C(=S)Nc2ccccc2)C1c1ccc(S(C)(=O)=O)cc1 (stereo not drawn) [Compound 105, 2-(4-Methanesulfonyl-phenyl)-3,3-dimethyl-4-oxo-5-[1-pyridin-2-yl-methylidene]-piperidine-1-carbothioic acid phenylamide]",,(++) (5-8 fold),(++) (41-60%)
"CC1(C)CN(Cc2ccccc2)C(c2ccc(S(C)(=O)=O)cc2)C(=Cc2cccc(N3CCOCC3)n2)C1=O (stereo not drawn) [Compound 227, 1-Benzyl-2-(4-methanesulfonyl-phenyl)-5,5-dimethyl-3-[1-(6-morpholin-4-yl-pyridin-2-yl)-methylidene]-piperidin-4-one]",,(++++) (>16 fold),(++++) (>80%)
"CC1(C)CN(Cc2ccccc2)C(c2ccc(S(C)(=O)=O)cc2)C(=Cc2ccccn2)C1=O (stereo not drawn) [Compound 229, 1-Benzyl-2-(4-methanesulfonyl-phenyl)-5,5-dimethyl-3-[1-pyridin-2-yl-methylidene]-piperidin-4-one]",,(++) (5-8 fold),(++++) (>80%)
"COc1ccc(OC)c(C2C(=Cc3cccc(N4CCN(C)CC4)n3)C(=O)C(C)(C)CN2Cc2ccc(C)cc2)c1 (stereo not drawn) [Compound 234, 2-(2,5-Dimethoxy-phenyl)-5,5-dimethyl-1-(4-methyl-benzyl)-3-[1-[6-(4-methyl-piperazin-1-yl)-pyridin-2-yl]-methylidene]-piperidin-4-one]",,(+++) (9-16 fold),(+++) (61-80%)
